Consider three compounds from patent US12637424B2, “Pharmaceutical salt of an arylpyrrole derivative” (SENTINEL ONCOLOGY LIMITED, priority 2020, dated 2026).

Holding throughout (type): physicochemical
Data set [1] in a line: Gravimetric solubility in water. The conditions noted are these: thermodynamic from solid, gravimetric solubility protocol. As for the experimental part: The solubility in water of the salts was measured using a gravimetric solubility protocol. 1 ml of water was charged into crystallisation tubes. The solid was weighed into a tared glass vial, added in portions to the solutions and the vial weighed after each addition until a hazy solution was observed. The amount in mg was then calculated to give the solubility in mg/ml.

Data set [2] in a line: Gravimetric vapour sorption (GVS). As for the experimental part:
The sample was maintained at a constant temperature (25° C.) by the instrument controls. The humidity was controlled by mixing streams of dry and wet nitrogen, with a total flow of 250 ml·min-1. The instrument was verified for relative humidity content by measuring three calibrated Rotronic salt solutions (10-50-88%). The weight change of the sample was monitored as a function of humidity by a microbalance (accuracy+/−0.005 mg). A defined amount of sample was placed in a tared mesh stainless steel basket under ambient conditions. A full experimental cycle typically consisted of three scans (sorption, desorption and sorption) at a constant temperature (25° C.) and 10% RH intervals over a 0-90% range (60 minutes for each humidity level).

The nature of data set [3]: Solubility in (2-hydroxypropyl)-β-cyclodextrin 20% w/v in water. Conditions: continuous stirring, gentle warming to 40° C.
The nature of data set [4]: Powder density and flowability. As for the experimental part:
The compound was allowed to settle prior to weighing with approximately 40 mL volume occupied and bulk density calculated. […] The tap density was then calculated.

The next data set can be described thus: ICH storage stability. From the text: The stability protocol followed ICH guidelines. […] Following storage, these samples were removed from the stability cabinet and analysed for appearance, water content by Karl Fischer titration (KF), and purity. No change in water content or chemical purity by HPLC was observed over six months. […]

Where [5] appears, read: calculated from bulk and tap density.

Structures can show the parent of a compound that is named as a salt. Where only a bound is given, the exact number is not on record here.

For orientation: solubility means the concentration that dissolves in the medium under given conditions. Low values mean little dissolved substance, high ones much dissolved substance. As to `CN(C)CCNC(=O)c1ccc(-c2ccc(-c3ccc(Cl)cc3)n2-c2ccccc2C(F)(F)F)cc1` (single isomer, unassigned) [Atropisomer A-2 Tartrate Pattern A salt], in data set [1], the solubility was 6700 µg/mL.
In turn, `CN(C)CCNC(=O)c1ccc(-c2ccc(-c3ccc(Cl)cc3)n2-c2ccccc2C(F)(F)F)cc1` (single isomer, unassigned) [Atropisomer A-2 Tartrate Pattern B salt] showed a solubility in data set [1] of 7500 µg/mL. The “moisture content before the first desorption” value in data set [2] (GVS, 25° C.) is “ca. 0.3%”. The “moisture taken up between 80 and 90% RH” value in data set [2] (GVS, 25° C., 80-90% RH) was “ca. 0.8%”. Also, in data set [3], the “concentration achieved in solution” value was greater than 100000 µg/mL. In data set [4], the powder bulk density is 0.55 g/mL and the tap density is listed as roughly 0.659 g/mL. In addition, in data set [4] (setting [5]), the “Carr's index” value is recorded as 16.5% and the Hausner ratio was 1.19. Also, the flowability entry in data set [4] (descriptor from Carr's index and Hausner ratio) is “fair”. Also, in “ICH storage stability” (T = 0), the Appearance entry is “A white solid”, the “Chemical purity by HPLC” value came out at 99.60% and the “Water content by KF” value came to 0.2% w/w. In addition, in the data set “ICH storage stability” (T = 6 month, 25° C./60% RH), the Appearance result is “A white solid”, the “Chemical purity by HPLC” value is given as 99.60% and the “Water content by KF” value is 0.2% w/w. Further, in “ICH storage stability” (T = 6 month, 40° C./75% RH), the Appearance entry was “A white solid”, the “Chemical purity by HPLC” value came to 99.60% and the “Water content by KF” value stood at 0.2% w/w. Also, the “change in water content or chemical purity by HPLC” value in the data set “ICH storage stability” (over six months, 25° C./60% RH and 40° C./75% RH) is recorded as “No change”.
Regarding `CN(C)CCNC(=O)c1ccc(-c2ccc(-c3ccc(Cl)cc3)n2-c2ccccc2C(F)(F)F)cc1` [(+)-L-tartaric acid salt, (R)-4-[5-(4-chlorophenyl)-1-[2-(trifluoromethyl)-phenyl]pyrrol-2-yl]-N-[2-(dimethylamino)-ethyl]benzamide (+)-L-tartaric acid salt], the “moisture uptake (surface moisture)” value in data set [2] (at 90% RH) is reported as less than 1%.
